From patent US20080268535A1, “Method for Inducing the Differentiation of Human Myelogenous Leukemia Cells Into Megakarocytes or Thrombocytes” (EWHA University - Industry Collaboration Foundation, priority 2005, published 2008)
“Also recorded” adds a separate entry of the source.

Legend:
Type in all cases: cell-based, human
K562 cells [1] = experiment: Growth curve of K562 cells (trypan blue viable cell count); details: 40 μg/ml, counted every day for 5 days
Method: To examine the effect of the compound (R)-NALPCE on cell growth, K562 cells was monitored for growth in the presence thereof. The cells were aliquoted at a density of 1×10^5 cells per well in 6-well plates and treated with 40 μg/ml. After staining with trypan blue, viable cells were counted every day for 5 days.

HEL cells [2] = experiment: Differentiation inductivity, lineage receptor expression by FACS, HEL cells; details: 5 μg/ml (R)-NALPCE 5 days or 10 nM PMA 3 days
Method: HEL cells were aliquoted at a density of 3×10^5 cells per well in 6-well plates and treated separately with 5 μg/ml of (R)-NALPCE and 10 nM of 12-phorbol myristate-13-acetate (PMA) (Calbiochem.), followed by incubation for 5 and 3 days, respectively. After centrifugation (1,000 rpm, 10 min), cell pellets thus obtained were washed three times with 0.01% bovine serum albumin (BSA) in PBS and incubated with 10 μl of anti-CD61-fluorescein-5-isothiocyanate (FITC) (Dako Chemicals, Carpenteria, Calif.), 20 μl of anti-CD16-Cy-Chrome (Cy) (BD Pharmingen), 10 μl of anti-glycophorin ACD235a-phycoerythrin (PE) (Dako Chemicals, Carpenteria, Calif.), and 20 μl of anti-CD14-allophycocyanin (APC) (BD Pharmingen) in 200 μl of 0.01% bovine serum albumin (BSA)-PBS at 4° C. for 50 min with spinning so as to achieve homogenous fluorescent staining over the cells. After centrifugation (1,000 rpm, 10 min), the cell pellets thus obtained were washed three times with 0.01% bovine serum albumin (BSA) in PBS. Fluorescence was analyzed on a fluorescence-activated cell sorter (FACS) (Aria) using a Cellquest program.

K562 cells [3] = experiment: Megakaryocyte differentiation, CD41/CD61 expression over time by FACS, K562 cells; details: 40 μg/ml, 4 days
Method: K562 cells were aliquoted at a density of 2×10^5 cells per well in 6-well plates and treated with 40 μg/ml of (R)-NALPCE, followed by incubation for 4 days. After centrifugation (1,000 rpm, 5 min), the cell pellets thus obtained were washed three times with 0.01% bovine serum albumin (BSA) in PBS. Incubation with 10 μl of anti-CD41-fluorescein-5-isothiocyanate (FITC) (Dako Chemicals, Carpenteria, Calif.) or 20 μl of anti-CD61-phycoerythrin (PE) (BD Pharmingen) in 200 μl of 0.01% bovine serum albumin (BSA)-PBS was conducted at 4° C. for 50 min with spinning to realize homogeneous fluorescent staining. Following centrifugation (1,000 rpm, 10 min), the cell pellets thus obtained were rinsed three times with 0.01% bovine serum albumin (BSA) in PBS. Fluorescence was analyzed on a fluorescence-activated cell sorter (FACS) (Aria) using a Cellquest program.

K562 cells [4] = experiment: Differentiation of K562 cells layered on OP9 cells, CD41/CD61 by FACS
Method: OP9 cells were aliquoted at a density of 1×10^5 cells per well in 6-well plates and incubated for 24 hrs. After OP9 cells were uniformly attached onto the bottom of the plates, K562 cells were layered at a density of 1×10^5 cells per well over the OP cells in the 6-well plates. Treatment with 40 μg/ml of (R)-NALPCE was conducted before incubation in a day-dependent manner for 4 days. Following centrifugation (1,000 rpm, 5 min), the cell pellets thus obtained were rinsed three times with 0.01% bovine serum albumin (BSA) in PBS. Incubation with 10 μl of anti-CD41-fluorescein-5-isothiocyanate (FITC) (Dako Chemicals, Carpenteria, Calif.) and 20 μl of anti-CD61-phycoerythrin (PE) (BD Pharmingen) in 200 μl of 0.01% bovine serum albumin (BSA)-PBS was conducted at 4° C. for 50 min so as to achieve homogeneous fluorescent staining. After centrifugation (1,000 rpm, 10 min), the fluorescent-stained cell pellets thus obtained were washed three times with 0.01% bovine serum albumin (BSA) in PBS. Fluorescence was analyzed on a fluorescence-activated cell sorter (FACS) (Aria) using a Cellquest program.

HEL cells [5] = experiment: Cell differentiation of HEL cells, optical microscopy; details: 5 μg/ml (R)-NALPCE, 10 nmole PMA or 50 ng/ml TPO, 5 days
Method: HEL cells were aliquoted at a density of 3×10^5 cells per well in 6-well plates and treated with 5 μg/ml of (R)-NALPCE, 10 nmole of PMA, or 50 ng/ml of TPO, followed by incubation in a day-dependent manner for 5 days. They were observed under an optical microscope with 200× magnification.

K562 cells [6] = experiment: Transmission electron microscopy of cells differentiated from K562 cells on OP9 cells; details: 40 μg/ml, 5 days
Method: OP9 cells were aliquoted at a density of 1×10^5 cells in 6-well plates and incubated for 24 hrs. After the OP9 cells were uniformly attached onto the bottom of the plates, K562 cells were layered at a density of 1×10^5 cells over the OP9 cells in 6-well plates. The cells were treated with 40 μg/ml of (R)-NALPCE before incubation for 5 days. Following centrifugation (1,000 rpm, 5 min), the cells were pre-fixed with 2.5% glutaraldehyde in PBS (pH 7.4) for 24 hrs. Thereafter, cell pellets obtained by centrifugation (4,000 rpm, 10 min) were fixed for 1 hr with 1% osmium tetraoxide in 0.1 M PBS (pH 7.4). After being washed with PBS, the post-fixed samples were dehydrated with 60, 70, 80, 90, and 95% ethanol for 10 min each and then twice with 100% ethanol for 10 min each, and embedded in epoxy resin. The embedded samples were sectioned into slices 1 μm thick using an ultramicrotome diamond knife (Richert-Jung, U.S.A.) and stained with 1% toluidine blue for optical microscopy. Separately, ultra-thin sections ranging in thickness from 60 to 70 nm were prepared and stained sequentially with 1-2% uranyl acetate and 1% lead citrate for transmission electron microscopy, in which electrons were accelerated at 75 kV using H-600 TEM (Hitachi, Japan).

SMILES: CCCCCCCCCCCCCCCCCC(=O)NC(COP(=O)([O-])OCC[N+](C)(C)C)C(=O)OC [(R)-NALPCE, N-steroyl-O-phosphocholine-D-serine methyl ester]
- cell growth curve (viable cells) (K562 cells [1]): relatively low cell growth curve
- expression of CD61, CD235a, CD16 and CD14 receptors (HEL cells [2]): CD61 and CD16 were specifically expressed
- CD41 and CD61 expression rate (K562 cells [3]): increase in expression rate in a time-dependent manner
- increase in the count of CD41-positive cells, with OP9 cells versus alone (K562 cells [4]; K562 cells on OP9 cells, 40 μg/ml, 4 days): 15%
- differentiation inductivity compared with PMA (K562 cells [4]; in combination with OP9 cells): comparable with the differentiation inductivity of PMA; also recorded: as good as that of PMA
- cell morphology (optical microscope) (HEL cells [5]): increase in size in a day-dependent manner
- maturity of megakaryocytes (TEM) (K562 cells [6]): have demarcation channels within which platelets are held
- morphology of released platelets (TEM) (K562 cells [6]): morphology similar to that of the pre-existing blood platelets
- polymorphonuclear megakaryocytes having at least two nuclei among the differentiated cells (K562 cells [6]; TEM): ≥ 40%
